From ChEMBL document CHEMBL1152120, “RP 73163: A bioavailable alkylsulphinyl-diphenylimidazole ACAT inhibitor” (Bioorg Med Chem Lett, 1996)

What was measured:
[1] = molecular target: T1, Acyl-CoA:cholesterol acyltransferase (Oryctolagus cuniculus, UniProt Q95214); test: Compound was evaluated for inhibitory activity against Acyl coenzyme A:cholesterol acyltransferase in microsomes from rabbit intestine.
T1 sequence (Q95214 whole entry): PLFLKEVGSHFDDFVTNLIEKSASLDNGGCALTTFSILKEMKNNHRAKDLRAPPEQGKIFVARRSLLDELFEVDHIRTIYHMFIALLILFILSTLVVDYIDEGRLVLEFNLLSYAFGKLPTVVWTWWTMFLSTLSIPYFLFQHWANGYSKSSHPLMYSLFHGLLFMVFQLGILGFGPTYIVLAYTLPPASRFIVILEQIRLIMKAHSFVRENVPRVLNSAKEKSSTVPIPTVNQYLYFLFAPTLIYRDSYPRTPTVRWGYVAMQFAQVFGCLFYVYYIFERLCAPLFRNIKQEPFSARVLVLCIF

[2] = molecular target: T1, Acyl-CoA:cholesterol acyltransferase; test: Compound was evaluated for inhibitory activity against Acyl coenzyme A:cholesterol acyltransferase in microsomes from rabbit adrenal.
[3] = molecular target: T1, Acyl-CoA:cholesterol acyltransferase; test: Compound was evaluated for inhibitory activity against Acyl coenzyme A:cholesterol acyltransferase in microsomes from rabbit liver.
[4] = molecular target: T1, Acyl-CoA:cholesterol acyltransferase; test: Compound was evaluated for inhibitory activity against Acyl coenzyme A:cholesterol acyltransferase in microsomes from rabbit artery.

Cc1cc(C)n(CCCCC[S+]([O-])c2nc(-c3ccccc3)c(-c3ccccc3)[nH]2)n1 (centres undefined)
IC50 [1]: 370 nM | IC50 [2]: 208 nM | IC50 [3]: 122 nM | IC50 [4]: 245 nM
